According to publication PMC8343220, “The selectivity of α‐adrenoceptor agonists for the human α1A, α1B, and α1D‐adrenoceptors” (Pharmacology Research & Perspectives, 2021):

Legend:
human α1A‐adrenoceptor [1] = molecular target: T1, human α1A‐adrenoceptor (Homo sapiens, UniProt P35348); assay: ERK1/2‐phosphorylation (Surefire Alphascreen), CHO‐α1A cells; format: cell-based; conditions: for EC50: CHO‐α1A cells, 2–4 min, ^a bi‐phasic: initial stimulatory part, ^b also active in parent CHO cells, read-out: ERK1/2‐phosphorylation Log EC50 (converted)
T1 construct: expressed in transfected cells; host or cells: CHO-K1
T1 sequence (P35348 1-466): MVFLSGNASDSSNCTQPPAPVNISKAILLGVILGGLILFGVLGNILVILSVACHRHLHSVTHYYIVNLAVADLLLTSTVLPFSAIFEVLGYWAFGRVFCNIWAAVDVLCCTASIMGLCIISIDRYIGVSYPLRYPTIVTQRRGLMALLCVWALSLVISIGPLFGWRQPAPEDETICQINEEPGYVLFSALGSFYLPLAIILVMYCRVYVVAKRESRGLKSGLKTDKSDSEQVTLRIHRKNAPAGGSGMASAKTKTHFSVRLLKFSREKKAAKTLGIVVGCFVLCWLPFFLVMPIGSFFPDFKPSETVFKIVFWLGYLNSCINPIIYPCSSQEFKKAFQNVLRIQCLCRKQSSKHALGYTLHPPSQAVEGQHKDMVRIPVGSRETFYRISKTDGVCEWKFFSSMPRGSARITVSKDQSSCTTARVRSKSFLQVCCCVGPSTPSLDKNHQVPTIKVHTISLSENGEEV

human α1B‐adrenoceptor [2] = molecular target: T2, human α1B‐adrenoceptor (Homo sapiens, UniProt P35368); assay: ERK1/2‐phosphorylation (Surefire Alphascreen), CHO‐α1B cells; format: cell-based; conditions: for EC50: CHO‐α1B cells, for bi‐phasic responses the initial stimulatory part, read-out: ERK1/2‐phosphorylation Log EC50 (converted)
T2 construct: expressed in transfected cells; host or cells: CHO-K1
T2 sequence (P35368 1-520): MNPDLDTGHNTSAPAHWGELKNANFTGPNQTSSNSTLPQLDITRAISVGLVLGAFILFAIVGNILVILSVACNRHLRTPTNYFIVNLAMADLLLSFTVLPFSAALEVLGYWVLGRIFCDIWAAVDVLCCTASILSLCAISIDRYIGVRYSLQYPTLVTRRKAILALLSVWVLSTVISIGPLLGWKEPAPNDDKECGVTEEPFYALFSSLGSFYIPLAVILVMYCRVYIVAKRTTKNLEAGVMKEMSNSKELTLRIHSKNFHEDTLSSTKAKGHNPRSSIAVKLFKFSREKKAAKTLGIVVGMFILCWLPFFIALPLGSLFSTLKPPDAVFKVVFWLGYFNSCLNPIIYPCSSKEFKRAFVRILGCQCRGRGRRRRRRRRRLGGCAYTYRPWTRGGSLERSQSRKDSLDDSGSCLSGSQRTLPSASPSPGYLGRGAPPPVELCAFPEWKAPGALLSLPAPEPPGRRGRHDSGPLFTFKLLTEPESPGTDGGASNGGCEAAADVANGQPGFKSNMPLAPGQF

[3] = system: parental CHO cell line without any transfected receptors; assay: ERK1/2‐phosphorylation, parent CHO cells without transfected receptors; format: cell-based, Chinese hamster
human α1B‐adrenoceptor [4] = molecular target: T2, human α1B‐adrenoceptor; assay: ^3H‐prazosin whole‐cell radioligand binding, CHO‐α1B cells; conditions: CHO‐α1B cells
human α1B‐adrenoceptor [5] = molecular target: T2, human α1B‐adrenoceptor; assay: Intracellular free calcium mobilization, CHO‐α1B cells; format: cell-based; conditions: for EC50: CHO‐α1B cells, given as log EC50 (negative numbers), read-out: Intracellular calcium release Log EC50 (converted)
human α1A‐adrenoceptor [6] = molecular target: T1, human α1A‐adrenoceptor; assay: Intracellular free calcium mobilization, CHO‐α1A cells; format: cell-based; conditions: for EC50: CHO‐α1A cells, given as log EC50 (negative), read-out: Intracellular calcium release Log EC50 (converted)
human α1B‐adrenoceptor [7] = molecular target: T2, human α1B‐adrenoceptor; assay: ^3H‐cAMP accumulation, CHO‐α1B cells; format: cell-based; conditions: CHO‐α1B cells; for cAMP accumulation % forskolin: % forskolin maximum response; for EC50: read-out: cAMP accumulation Log EC50 (converted)
human α1A‐adrenoceptor [8] = molecular target: T1, human α1A‐adrenoceptor; assay: ^3H‐prazosin whole‐cell radioligand binding, CHO‐α1A cells; conditions: for Kd: Log KD α1A, ^3H‐prazosin whole cell binding, CHO‐α1A cells, given as log KD (negative), mean ± SEM
human α1A‐adrenoceptor [9] = molecular target: T1, human α1A‐adrenoceptor; assay: ^3H‐cAMP accumulation in the presence of 10 μM forskolin, CHO‐α1A cells; format: cell-based; conditions: CHO‐α1A cells; for EC50: 10 μM forskolin, read-out: cAMP accumulation (in presence of forskolin) Log EC50 (converted); for cAMP accumulation (in presence of forskolin) Fold increase: fold increase of the forskolin response
[10] = system: parental CHO cell line without any transfected receptors; assay: Forskolin‐stimulated cAMP accumulation, parent CHO cells without transfected receptors; format: cell-based, Chinese hamster; conditions: CHO cells without transfected receptors; in presence of forskolin
[11] = molecular target: T3, human α1D‐adrenoceptor (full length) (Homo sapiens, UniProt P25100); assay: ^3H‐prazosin whole‐cell radioligand binding, CHO‐α1D cells; conditions: for Kd: CHO‐α1D cells
T3 construct: human α1D‐adrenoceptor (full length) were used; expressed in transfected cells; host or cells: CHO-K1
T3 sequence (P25100 1-572): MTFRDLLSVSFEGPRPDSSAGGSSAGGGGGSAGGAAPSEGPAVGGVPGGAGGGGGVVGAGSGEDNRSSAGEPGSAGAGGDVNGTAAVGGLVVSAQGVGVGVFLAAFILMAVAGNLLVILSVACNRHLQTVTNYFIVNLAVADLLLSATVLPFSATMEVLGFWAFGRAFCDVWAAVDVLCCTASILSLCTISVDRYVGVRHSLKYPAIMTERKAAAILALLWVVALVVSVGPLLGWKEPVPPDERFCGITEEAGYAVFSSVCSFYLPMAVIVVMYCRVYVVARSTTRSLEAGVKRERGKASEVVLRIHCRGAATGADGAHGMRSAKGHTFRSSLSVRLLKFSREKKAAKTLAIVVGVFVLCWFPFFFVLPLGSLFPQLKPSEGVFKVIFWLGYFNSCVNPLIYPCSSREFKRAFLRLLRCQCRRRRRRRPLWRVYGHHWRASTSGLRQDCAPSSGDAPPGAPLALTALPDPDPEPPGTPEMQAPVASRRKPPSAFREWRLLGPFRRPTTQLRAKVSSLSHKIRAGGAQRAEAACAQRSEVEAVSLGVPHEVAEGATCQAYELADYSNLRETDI

human α1A‐adrenoceptor [12] = molecular target: T1, human α1A‐adrenoceptor; assay: ^3H‐cAMP accumulation, CHO‐α1A cells; format: cell-based; conditions: CHO‐α1A cells
[13] = molecular target: T3, human α1D‐adrenoceptor (full length); assay: Intracellular free calcium mobilization, CHO‐α1D cells; format: cell-based; conditions: for Intracellular calcium release Log EC50: CHO‐α1D cells, log values given negative
human α1B‐adrenoceptor [14] = molecular target: T2, human α1B‐adrenoceptor; assay: ^3H‐cAMP accumulation in the presence of 10 μM forskolin, CHO‐α1B cells; format: cell-based; conditions: CHO‐α1B cells; for cAMP accumulation (in presence of forskolin) Fold increase: fold increase of the forskolin response; for EC50: in presence of forskolin, read-out: cAMP accumulation (in presence of forskolin) Log EC50 (converted)
[15] = molecular target: T3, human α1D‐adrenoceptor (full length); assay: ERK1/2‐phosphorylation (Surefire Alphascreen), CHO‐α1D cells; format: cell-based; conditions: for ERK1/2‐phosphorylation Log EC50: CHO‐α1D cells, log values given negative
[16] = Log KD α1B, ^3H‐prazosin whole cell binding, given as log KD (negative), mean ± SEM
[17] = Log KD, ^3H‐prazosin binding, whole‐cell binding (from Table 1), given as log KD (negative numbers)
[18] = 3H‐prazosin binding Log KD, whole‐cell binding (from Table 1), log values given negative
[19] = Log KD α1D, ^3H‐prazosin whole cell binding, given as log KD (negative), mean ± SEM, 'early plateau' = specific binding not fully inhibited

Compound	ERK1/2‐phosphorylation % PDBu (human α1A‐adrenoceptor [1]) [%]	EC50 (human α1A‐adrenoceptor [1]) [nM]	ERK1/2‐phosphorylation % PDBu (human α1B‐adrenoceptor [2]) [%]	EC50 (human α1B‐adrenoceptor [2]) [nM]	Kd (human α1B‐adrenoceptor [4]; [16]) [nM]	Kd (human α1B‐adrenoceptor [4]; [17]) [nM]	Intracellular calcium release % ionomycin (human α1B‐adrenoceptor [5]) [%]	Log efficacy ratio KD /EC50 (human α1B‐adrenoceptor [5])	EC50 (human α1B‐adrenoceptor [5]) [nM]	Intracellular calcium release % ionomycin (human α1A‐adrenoceptor [6]) [%]	Log efficacy ratio KD /EC50 (human α1A‐adrenoceptor [6])	EC50 (human α1A‐adrenoceptor [6]) [nM]	cAMP accumulation % forskolin (human α1B‐adrenoceptor [7]) [%]	EC50 (human α1B‐adrenoceptor [7]) [nM]	Affinity selectivity ratio α1A vs α1B (human α1A‐adrenoceptor [8]) [fold]	Affinity selectivity ratio α1A vs α1D (human α1A‐adrenoceptor [8]) [fold]	Kd (human α1A‐adrenoceptor [8]) [nM]	EC50 (human α1A‐adrenoceptor [9]) [nM]	cAMP accumulation (in presence of forskolin) Fold increase (human α1A‐adrenoceptor [9]) [fold]	cAMP accumulation (in presence of forskolin) Log EC50 [10]	further results
Brc1c(NC2=NCCN2)ccc2nccnc12 [UK14304]	88.7 ± 4.3	186	33.8 ± 5.0	316	12900	12900	27.5 ± 1.8	2.26	70.8	45.6 ± 1.6	1.64	67.6	2.7 ± 0.1	95.5	4.4	1.5	2950	1380	1.95 ± 0.09	No response	ERK1/2-phosphorylation % PDBu ([3]; CHO cells without transfected receptors, maximal response as % of PDBu (10μM) response, mean ± s.e.m.): No response; ERK1/2-phosphorylation Log EC50 ([3]; CHO cells without transfected receptors, mean ± s.e.m.): No response; Affinity selectivity ratio α1B vs α1D [11]: 3.0 fold; Kd [11, 18]: 4370 nM; Kd [11, 19]: 4370 nM; cAMP accumulation % forskolin at 10 μM (human α1A‐adrenoceptor [12]; response at 10 μM ligand, no EC50 obtained): 12.0 ± 1.1%; Intracellular calcium release % ionomycin [13]: No response; Intracellular calcium release Log EC50 [13]: No response; cAMP accumulation (in presence of forskolin) Fold increase (human α1B‐adrenoceptor [14]): 1.50 ± 0.05 fold; EC50 (human α1B‐adrenoceptor [14]): 97.7 nM; ERK1/2‐phosphorylation % PDBu [15]: No response; ERK1/2‐phosphorylation Log EC50 [15]: No response
Brc1c(NC2=NCCN2)ccc2nccnc12 [Brimonidine]	86.4 ± 3.6	363	41.2 ± 6.2	724	20900	20900	35.8 ± 2.4	2.33	97.7	47.8 ± 4.1	1.57	117	4.5 ± 1.6	129	4.8	1.2	4370	1580	1.96 ± 0.05	No response	Emax at 100 µM ([3]; Cricetulus griseus, CHO, read-out: ERK1/2-phosphorylation % PDBu at 100μM): 2.3 ± 1.7%; Affinity selectivity ratio α1B vs α1D [11]: 3.9 fold; Kd [11, 18]: 5370 nM; Kd [11, 19]: 5370 nM; EC50 (human α1A‐adrenoceptor [12]; 5 h, read-out: cAMP accumulation Log EC50 (converted)): 5750 nM; cAMP accumulation % forskolin (human α1A‐adrenoceptor [12]; % of 10 µM forskolin response): 17.8 ± 1.7%; Intracellular calcium release % ionomycin [13]: No response; Intracellular calcium release Log EC50 [13]: No response; cAMP accumulation (in presence of forskolin) Fold increase (human α1B‐adrenoceptor [14]): 1.58 ± 0.07 fold; EC50 (human α1B‐adrenoceptor [14]): 105 nM; ERK1/2‐phosphorylation % PDBu [15]: No response; ERK1/2‐phosphorylation Log EC50 [15]: No response
